Data taken from patent publication US20110059124A1, “THE QUALITY CONTROL METHOD AND APPLICATION OF A KIND OF GANODERMA LUCIDUM SPORE OIL FAT EMULSION” (Guangzhou Hanfang Natural Medicine Research & Development …, priority 2008, published 2011).
Marks after values point to notes of the source that are not given here. Ends that are not written are not given here.

Experiments:
Assay type in all cases: in vivo, ICR mice
normal mice [1] = experiment: Toxicity reduction for chemotherapy (Cy) in normal mice; conditions: 0.42 mg/kg Sc once every other day + Cy 100 mg/kg ip
Experimental: Toxicity reducing Effect of Ganoderma lucidium Spore Oil Fat Emulsion i.v. Dosage for Chemotherapy (Cy) in Normal Mice
Experiment Method: Take 60 ICR mice, and randomize into 6 groups pursuant to body weight, with 10 animals in each group, half of which are females and half of which are males. […] Apart from that Thymosin a1 is administered once every other day, other groups are administered once daily, with a total dosage of 7 times. On day 4 and day 5 of the administration, apart from blank control, the other groups begin to be treated with ip.Cy (100 mg/kg), for two successive days, and the mice are sacrificed 24 hours after termination of dosage, weigh and collect blood from the orbit veins before sacrificing, microscopically examine the total number of peripheral blood leukocytes, at the same time dissect one complete femur, then determine the number of nucleated cells in the bone marrow, and remove the thymus gland and spleen for weighing, and calculate the coefficients of thymus glands and spleen organs, and carry out statistical treatment (t Test).

normal mice [2] = experiment: Toxicity reduction for ^60Co radiation in normal mice; conditions: ^60Co 500 rad, 0.42 mg/kg Sc once every other day
Experimental: Toxicity Reducing Effect of Ganoderma lucidium Spore Oil Fat Emulsion i.v . Dosage for Chemotherapy ^60Co in Normal Mice
(§1) Experiment Method: Take 60 ICR mice, apart from the 10 animals in blank control, the other 50 mice are radiated with ^60Co, with a dosage of 500 rad; after radiation with ^60Co, randomize the animals into 5 groups pursuant to body weight, with 10 animals in each group, half of which are females and half of which are males. […] All groups of animals are dosed 24 hours after innoculation, apart from that Thymosin a1 are dosed once every other day, the other groups are administered once daily, with a total dose of 7 times, and the mice are sacrificed 24 hours after termination of dosage, weigh and collect blood from the orbit veins before sacrificing, microscopically examine the total number of peripheral blood leukocytes; at the same time remove spleen, thymus gland and one complete femur, then determine the number of nucleated cells in bone marrow, and weigh the thymus gland and spleen, and calculate the coefficients of thymus glands and spleen organs, and carry out statistical treatment (t Test).

H22 tumor bearing mice [3] = experiment: Toxicity reduction for chemotherapy with cyclophosphamide (Cy) in H22 tumor bearing mice; conditions: 0.42 mg/kg Sc once every other day + Cy 100 mg/kg ip
Experimental: Toxicity Reduction Effect of Ganoderma lucidium Spore Oil Fat Emulsion i.v. Dosage for Chemotherapy with Cyclophosphamide (Cy) in H22 Tumor Bearing Mice
Experiment Method: Take 60 ICR mice, inoculate with H22 solid tumor, weigh 24 hours after inoculation, then randomize into 6 groups, with 10 animals in each group, half of which are females and half of which are males. […] Apart from that Thymosin a1 are dosed once every other day, the other groups are administered once daily, with a total dose of 7 times, on day 4 and day 5 of administration, apart from blank control, the other groups begin to be treated with ip.Cy (100 mg/kg), for two successive day, and the mice are sacrificed 24 hours after termination of dosage, weigh and collect blood from the orbit veins before sacrificing, microscopic examine the total number of peripheral blood leukocytes, at the same time dissect one complete femur, then determine the number of nucleated cells in the bone marrow, and remove the thymus gland and spleen for weighing, and calculate the coefficients of thymus glands and spleen organs, and carry out statistical treatment (t Test).

H22 tumor bearing mice [4] = experiment: Phagocytic activity of reticuloendothelial system (RES) in H22 tumor bearing mice; conditions: 0.42 mg/kg Sc once every other day
Experimental: Experiment Treatment Effect of Ganoderma lucidium Spore Oil Fat Emulsion i.v. Dosage Influencing the Phagocytic Activity of Reticuloendothelial System (RES) in H22 Tumor Bearing Mice.
Experiment Method: Take 50 ICR mice, inoculate with H22 solid tumor, randomize into 5 groups pursuant to body weight, with 10 animals in each group, half of which are females and half of which are males. […] Apart from that Thymosin a1 is administered once every other day, other groups are administered once daily, with a total dosage of 11 times. […] All the data obtained are statistically treated (t Test).

H22 tumor bearing mice [5] = experiment: Delayed hypersensitivity (DNFB) in H22 tumor bearing mice; conditions: 0.42 mg/kg Sc once every other day
Excerpt: Experiment Treatment Effect of Ganoderma lucidium Spore Oil Fat Emulsion i.v. Dosage Influencing the Immunity Function of Specific Cells in H22 Tumor Bearing Mice
Take 50 ICR mice, inoculate with H22 solid tumor pursuant to the research method of transplantable tumor (take the tumor mass under sterile operation, then weigh, grinding with Glass tissue homogenizer, after homogeneity, put into sterile containers, then dilute with normal saline into cell suspension of 1:3, for each mouse, inoculate intracutaneously under the right armpit for 0.2 ml). On the second day, they are randomized into 5 groups, with 10 mice in each group, with half being males and half females, which are divided into: Intravenous Control Group ([…], Blank Group), High, Medium, Low Doasge Groups injected with Ganoderma lucidium spore oil fat emulsion (1, 0.5, 0.25 g/kg) iv administered, Thymosin a1 injection group (0.42 mg/kg) Sc administered; apart from that Thymosin a1 is administered once every other day, other groups are administered once daily, with 7 administration. On day 1 after dosage, hair is removed from the abdomen of each mouse, with an area of 3×3 cm^2. On day 2 after dosage, smear 1% of DNFB evenly on the abdomen of mice (DNFB is a kind of haptene, which after combination with cutaneous proteins could form holoantigen, that stimulate the T Lymphocytes to multiply into sensitized lymphocytes).

H22 tumor bearing mice [6] = experiment: Toxicity reduction for ^60Co radiation in H22 tumor bearing mice; conditions: ^60Co 500 rad, 0.42 mg/kg Sc once every other day
Experimental: Toxicity Reducing Effect of Ganoderma lucidium Spore Oil Fat Emulsion i.v. Dosage for Chemotherapy with ^60Co in H22 Tumor Bearing Mice
as §1, with “mice, innoculate with H22 solid tumor pursuant to the research method for transplantable tumors, 24 hours after innoculation,” for “mice,”, “receive ^60Co radiation,” for “are radiated with ^60Co,”, “Apart” for “All groups of animals are dosed 24 hours after innoculation, apart”, “leukocytes,” for “leukocytes;”

Substance: Thymosin a1: Positive control drug Thymosin a1 injection, 0.42 mg/kg Sc (SDAAVDTSSEITTKDLKEKKEVVEEAEN; ends and bridges not checked; UniProt P06454 2-29, looked up)
- Body Weight After Dosage (normal mice [1]): 22.90 ± 2.18 g
- Body Weight Before Dosage (normal mice [1]): 19.60 ± 1.26 g
- Spleen Coefficient (normal mice [1]): 0.36 ± 0.10 g/100 g
- The number of nucleated cells in bone marrow (normal mice [1]): 75.43 ± 13.32* 10^5/piece
- Thymus Gland Coefficient (normal mice [1]): 0.18 ± 0.03 g/100 g
- WBC (normal mice [1]): 2.04 ± 0.41* 10^9/L
- Body Weight After Dosage (normal mice [2]): 23.30 ± 2.11 g
- Body Weight Before Dosage (normal mice [2]): 19.90 ± 1.66 g
- Spleen Coefficient (normal mice [2]): 0.31 ± 0.14 g/100 g
- The number of nucleated cells in bone marrow (normal mice [2]): 67.83 ± 13.09* 10^5/piece
- Thymus Gland Coefficient (normal mice [2]): 0.14 ± 0.05 g/100 g
- WBC (normal mice [2]): 1.21 ± 0.38* 10^9/L
- Body Weight After Dosage (H22 tumor bearing mice [3]): 23.60 ± 2.27 g
- Body Weight Before Dosage (H22 tumor bearing mice [3]): 19.70 ± 1.57 g
- Spleen Coefficient (H22 tumor bearing mice [3]): 0.64 ± 0.21 g/100 g
- The number of nucleated cells in bone marrow (H22 tumor bearing mice [3]): 73.31 ± 15.99* 10^5/piece
- Thymus Gland Coefficient (H22 tumor bearing mice [3]): 0.12 ± 0.04 g/100 g
- WBC (H22 tumor bearing mice [3]): 2.03 ± 0.44* 10^9/L
- Clearance Index K (H22 tumor bearing mice [4]): 0.09 ± 0.02
- Liver Coefficient (H22 tumor bearing mice [4]): 6.91 ± 1.08 g/100 g
- Phagocytic Coefficient α (H22 tumor bearing mice [4]): 5.71 ± 0.76
- Spleen Coefficient (H22 tumor bearing mice [4]): 1.16 ± 0.44 g/100 g
- Thymus Gland Coefficient (H22 tumor bearing mice [4]): 0.33 ± 0.11 g/100 g
- Swelling Degree (H22 tumor bearing mice [5]; 24 hours after DNFB attack): 13.50 ± 3.44 mg
- Swelling Rate (H22 tumor bearing mice [5]; 24 hours after DNFB attack): 89.12 ± 19.76 %
- Body Weight After Dosage (H22 tumor bearing mice [5]; in g): 25.10 ± 2.18
- Body Weight Before Dosage (H22 tumor bearing mice [5]; in g): 19.30 ± 1.34
- Body Weight After Dosage (H22 tumor bearing mice [6]): 24.20 ± 2.25 g
- Body Weight Before Dosage (H22 tumor bearing mice [6]): 19.60 ± 1.51 g
- Spleen Coefficient (H22 tumor bearing mice [6]): 0.33 ± 0.04 g/100 g
- The number of nucleated cells in bone marrow (H22 tumor bearing mice [6]): 82.71 ± 13.58* 10^5/piece
- Thymus Gland Coefficient (H22 tumor bearing mice [6]): 0.17 ± 0.07 g/100 g
- WBC (H22 tumor bearing mice [6]): 1.98 ± 0.31* 10^9/L
